Experimental data from patent US11104671B2, “Insecticidal compounds” (SYNGENTA PARTICIPATIONS AG, priority 2017, dated 2021).

Key:
Format in all cases: in vivo
Spodoptera littoralis = Spodoptera littoralis (Egyptian cotton leaf worm), cotton leaf discs, L1 larvae; settings: foliar, 72 h, application rate 200 ppm, 3 days after infestation, L1 larvae, read-out: control (mortality, anti-feedant effect or growth inhibition)
Experimental: Spodoptera littoralis (Egyptian Cotton Leaf Worm)
Cotton leaf discs were placed onto agar in 24-well microtiter plates and sprayed with aqueous test solutions prepared from 10,000 ppm DMSO stock solutions. After drying the leaf discs were infested with five L1 larvae. The samples were assessed for mortality, anti-feeding effect, and growth inhibition in comparison to untreated samples 3 days after infestation. Control of Spodoptera littoralis by a test sample is given when at least one of the categories mortality, anti-feedant effect, and growth inhibition is higher than the untreated sample.

Thrips tabaci = Thrips tabaci (onion thrips), feeding/contact activity; settings: foliar, 144 h, application rate 200 ppm, 6 days after infestation, sunflower leaf discs, mixed ages, read-out: mortality
Experimental: Thrips tabaci (Onion thrips) Feeding/Contact Activity
(§1) Sunflower leaf discs were placed on agar in 24-well microtiter plates and sprayed with aqueous test solutions prepared from 10,000 ppm DMSO stock solutions. After drying the leaf discs were infested with a thrips population of mixed ages. The samples were assessed for mortality 6 days after infestation.

Myzus persicae [1] = experiment: Myzus persicae (green peach aphid), feeding/contact activity; settings: foliar, 144 h, application rate 200 ppm, 6 days after infestation, sunflower leaf discs, mixed ages, read-out: mortality
Experimental: Myzus persicae (Green Peach Aphid): Feeding/Contact Activity
Sunflower leaf discs were placed onto agar in a 24-well microtiter plate and sprayed with aqueous test solutions prepared from 10,000 ppm DMSO stock solutions. After drying, the leaf discs were infested with an aphid population of mixed ages. The samples were assessed for mortality 6 days after infestation.

Myzus persicae [2] = experiment: Myzus persicae (green peach aphid), intrinsic activity; settings: 120 h, test rate 12 ppm, 5 days after infestation, sucrose solution, infested pea seedlings, read-out: mortality
Text: Myzus persicae (Green Peach Aphid). Intrinsic Activity
Test compounds prepared from 10,000 ppm DMSO stock solutions were applied by pipette into 24-well microtiter plates and mixed with sucrose solution. The plates were closed with a stretched Parafilm. A plastic stencil with 24 holes was placed onto the plate and infested pea seedlings were placed directly on the Parafilm. The infested plate was closed with a gel blotting paper and another plastic stencil and then turned upside down. The samples were assessed for mortality 5 days after infestation.

Tetranychus urticae = Tetranychus urticae (two-spotted spider mite), feeding/contact activity; settings: foliar, 192 h, application rate 200 ppm, 8 days after infestation, bean leaf discs, read-out: mortality on mixed population (mobile stages)
Experimental: Tetranychus urticae (Two-Spotted Spider Mite): Feeding/Contact Activity
as §1, with “Bean” for “Sunflower”, “discs” for “discs were placed”, “were” for “and”, “mite” for “thrips”, “on mixed population (mobile stages) 8” for “6”

Diabrotica balteata = Diabrotica balteata (corn root worm), maize sprouts sprayed, L2 larvae; settings: 96 h, application rate 200 ppm, 4 days after infestation, L2 larvae, read-out: effect in at least one of the two categories (mortality or growth inhibition)
Experimental: Diabrotica Balteata (Corn Root Worm)
Maize sprouts placed onto an agar layer in 24-well microtiter plates were treated with aqueous test solutions prepared from 10,000 ppm DMSO stock solutions by spraying. After drying, the plates were infested with L2 larvae (6 to 10 per well). The samples were assessed for mortality and growth inhibition in comparison to untreated samples 4 days after infestation.

Euschistus heros = Euschistus heros (neotropical brown stink bug), soybean leaves sprayed, N2 nymphs; settings: 120 h, application rate 200 ppm, 5 days after infestation, N2 nymphs, read-out: effect in at least one of the two categories (mortality or growth inhibition)
Experimental: Euschistus heros (Neotropical Brown Stink Bug)
Soybean leaves on agar in 24-well microtiter plates were sprayed with aqueous test solutions prepared from 10,000 ppm DMSO stock solutions. After drying the leaves were infested with N2 nymphs. The samples were assessed for mortality and growth inhibition in comparison to untreated samples 5 days after infestation.

Plutella xylostella = Plutella xylostella (diamond back moth), artificial diet, L2 larvae; settings: 120 h, application rate 200 ppm, 5 days after infestation, L2 larvae, read-out: effect in at least one of the two categories (mortality or growth inhibition)
Experimental: Plutella xylostella (Diamond Back Moth)
24-well microtiter plates with artificial diet were treated with aqueous test solutions prepared from 10,000 ppm DMSO stock solutions by pipetting. After drying, the plates were infested with L2 larvae (10 to 15 per well). The samples were assessed for mortality and growth inhibition in comparison to untreated samples 5 days after infestation.

Cc1cc(C2=NCC(c3cc(Cl)c(Cl)c(Cl)c3)(C(F)(F)F)C2)ccc1C(=O)NC1CON(S(C)(=O)=O)C1 (stereo not shown) [Compound A8, 2-methyl-N-(2-methylsulfonylisoxazolidin-4-yl)-4-[3-(3,4,5-trichlorophenyl)-3-(trifluoromethyl)-2,4-dihydropyrrol-5-yl]benzamide]
≥ 80%: percent control (mortality, anti-feedant effect or growth inhibition) at 200 ppm (Spodoptera littoralis) | mortality at 200 ppm (Thrips tabaci) | mortality at 200 ppm (Myzus persicae [1]) | mortality at 12 ppm (Myzus persicae [2]) | mortality at 200 ppm (Tetranychus urticae) | percent effect (mortality or growth inhibition) at 200 ppm (Diabrotica balteata) | percent effect (mortality or growth inhibition) at 200 ppm (Euschistus heros) | percent effect (mortality or growth inhibition) at 200 ppm (Plutella xylostella)

Cc1cc(C2=COC(c3cc(Cl)cc(Cl)c3)(C(F)(F)F)C2)ccc1C(=O)NC1CON(S(C)(=O)=O)C1 (stereo not shown) [Compound A3, 4-[2-(3,5-dichlorophenyl)-2-(trifluoromethyl)-3H-furan-4-yl]-2-methyl-N-(2-methylsulfonylisoxazolidin-4-yl)benzamide]
≥ 80%: percent control (mortality, anti-feedant effect or growth inhibition) at 200 ppm (Spodoptera littoralis) | mortality at 200 ppm (Thrips tabaci) | mortality at 12 ppm (Myzus persicae [2]) | mortality at 200 ppm (Tetranychus urticae) | percent effect (mortality or growth inhibition) at 200 ppm (Diabrotica balteata) | percent effect (mortality or growth inhibition) at 200 ppm (Euschistus heros) | percent effect (mortality or growth inhibition) at 200 ppm (Plutella xylostella)

Cc1cc(C2=NCC(c3cc(Cl)cc(Cl)c3)(C(F)(F)F)C2)ccc1C(=O)NC1CON(S(C)(=O)=O)C1 (stereo not shown) [Compound A5, 4-[3-(3,5-dichlorophenyl)-3-(trifluoromethyl)-2,4-dihydropyrrol-5-yl]-2-methyl-N-(2-methylsulfonylisoxazolidin-4-yl)benzamide]
≥ 80%: percent control (mortality, anti-feedant effect or growth inhibition) at 200 ppm (Spodoptera littoralis) | mortality at 200 ppm (Thrips tabaci) | mortality at 200 ppm (Myzus persicae [1]) | mortality at 12 ppm (Myzus persicae [2]) | mortality at 200 ppm (Tetranychus urticae) | percent effect (mortality or growth inhibition) at 200 ppm (Diabrotica balteata) | percent effect (mortality or growth inhibition) at 200 ppm (Euschistus heros) | percent effect (mortality or growth inhibition) at 200 ppm (Plutella xylostella)

Cc1cc(C2=NCC(c3cc(Cl)cc(Cl)c3)(C(F)(F)F)C2)ccc1C(=O)N[C@H]1CON(S(=O)(=O)N(C)C)C1 (stereo partly drawn) [Compound A14, 4-[3-(3,5-dichlorophenyl)-3-(trifluoromethyl)-2,4-dihydropyrrol-5-yl]-N-[(4R)-2-(dimethylsulfamoyl)isoxazolidin-4-yl]-2-methyl-benzamide]
≥ 80%: percent control (mortality, anti-feedant effect or growth inhibition) at 200 ppm (Spodoptera littoralis) | mortality at 200 ppm (Thrips tabaci) | mortality at 200 ppm (Myzus persicae [1]) | mortality at 200 ppm (Tetranychus urticae) | percent effect (mortality or growth inhibition) at 200 ppm (Diabrotica balteata) | percent effect (mortality or growth inhibition) at 200 ppm (Euschistus heros) | percent effect (mortality or growth inhibition) at 200 ppm (Plutella xylostella)

Cc1cc(C2=NS[C@@](c3cc(Cl)cc(Cl)c3)(C(F)(F)F)C2)ccc1C(=O)N[C@H]1CON(S(=O)(=O)N(C)C)C1 [Compound A13, 4-[(5S)-5-(3,5-dichlorophenyl)-5-(trifluoromethyl)-4H-isothiazol-3-yl]-N-[(4R)-2-(dimethylsulfamoyl)isoxazolidin-4-yl]-2-methyl-benzamide]
≥ 80%: percent control (mortality, anti-feedant effect or growth inhibition) at 200 ppm (Spodoptera littoralis) | mortality at 200 ppm (Thrips tabaci) | mortality at 200 ppm (Myzus persicae [1]) | mortality at 200 ppm (Tetranychus urticae) | percent effect (mortality or growth inhibition) at 200 ppm (Diabrotica balteata) | percent effect (mortality or growth inhibition) at 200 ppm (Euschistus heros) | percent effect (mortality or growth inhibition) at 200 ppm (Plutella xylostella)

Cc1cc(N2CCC(c3cc(Cl)cc(Cl)c3)(C(F)(F)F)C2)ncc1C(=O)N[C@H]1CON(S(=O)(=O)N(C)C)C1 (stereo partly drawn) [Compound A15, 6-[3-(3,5-dichlorophenyl)-3-(trifluoromethyl)pyrrolidin-1-yl]-N-[(4R)-2-(dimethylsulfamoyl)isoxazolidin-4-yl]-4-methyl-pyridine-3-carboxamide]
≥ 80%: percent control (mortality, anti-feedant effect or growth inhibition) at 200 ppm (Spodoptera littoralis) | mortality at 200 ppm (Tetranychus urticae) | percent effect (mortality or growth inhibition) at 200 ppm (Diabrotica balteata) | percent effect (mortality or growth inhibition) at 200 ppm (Euschistus heros) | percent effect (mortality or growth inhibition) at 200 ppm (Plutella xylostella)

Cc1nc(N2CCC(c3cc(Cl)cc(Cl)c3)(C(F)(F)F)C2)ccc1C(=O)N[C@H]1CON(S(=O)(=O)N(C)C)C1 (stereo partly drawn) [Compound A16, 6-[3-(3,5-dichlorophenyl)-3-(trifluoromethyl)pyrrolidin-1-yl]-N-[(4R)-2-(dimethylsulfamoyl)isoxazolidin-4-yl]-2-methyl-pyridine-3-carboxamide]
≥ 80%: percent control (mortality, anti-feedant effect or growth inhibition) at 200 ppm (Spodoptera littoralis) | mortality at 200 ppm (Thrips tabaci) | mortality at 200 ppm (Myzus persicae [1]) | mortality at 200 ppm (Tetranychus urticae) | percent effect (mortality or growth inhibition) at 200 ppm (Diabrotica balteata) | percent effect (mortality or growth inhibition) at 200 ppm (Euschistus heros) | percent effect (mortality or growth inhibition) at 200 ppm (Plutella xylostella)

Cc1cc(C2=COC(c3cc(Cl)cc(Cl)c3)(C(F)(F)F)C2)ccc1C(=O)N[C@H]1CON(S(=O)(=O)N(C)C)C1 (stereo partly drawn) [Compound A12, 4-[2-(3,5-dichlorophenyl)-2-(trifluoromethyl)-3H-furan-4-yl]-N-[(4R)-2-(dimethylsulfamoyl)isoxazolidin-4-yl]-2-methyl-benzamide]
≥ 80%: percent control (mortality, anti-feedant effect or growth inhibition) at 200 ppm (Spodoptera littoralis) | mortality at 200 ppm (Thrips tabaci) | mortality at 200 ppm (Myzus persicae [1]) | mortality at 200 ppm (Tetranychus urticae) | percent effect (mortality or growth inhibition) at 200 ppm (Diabrotica balteata) | percent effect (mortality or growth inhibition) at 200 ppm (Euschistus heros) | percent effect (mortality or growth inhibition) at 200 ppm (Plutella xylostella)

Cc1nc(C2=CC(c3cc(Cl)cc(Cl)c3)(C(F)(F)F)OC2)ccc1C(=O)N[C@H]1CON(S(=O)(=O)N(C)C)C1 (stereo partly drawn) [Compound A17, 6-[5-(3,5-dichlorophenyl)-5-(trifluoromethyl)-2H-furan-3-yl]-N-[(4R)-2-(dimethylsulfamoyl)isoxazolidin-4-yl]-2-methyl-pyridine-3-carboxamide]
≥ 80%: percent control (mortality, anti-feedant effect or growth inhibition) at 200 ppm (Spodoptera littoralis) | mortality at 200 ppm (Thrips tabaci) | mortality at 200 ppm (Tetranychus urticae) | percent effect (mortality or growth inhibition) at 200 ppm (Diabrotica balteata) | percent effect (mortality or growth inhibition) at 200 ppm (Euschistus heros) | percent effect (mortality or growth inhibition) at 200 ppm (Plutella xylostella)

CS(=O)(=O)N1CC(NC(=O)c2ccc(C3=CSC(c4cc(Cl)c(Cl)c(Cl)c4)(C(F)(F)F)C3)cc2Cl)CO1 (stereo not shown) [Compound A1, 2-chloro-N-(2-methylsulfonylisoxazolidin-4-yl)-4-[2-(3,4,5-trichlorophenyl)-2-(trifluoromethyl)-3H-thiophen-4-yl]benzamide]
≥ 80%: percent control (mortality, anti-feedant effect or growth inhibition) at 200 ppm (Spodoptera littoralis) | mortality at 200 ppm (Thrips tabaci) | mortality at 12 ppm (Myzus persicae [2]) | mortality at 200 ppm (Tetranychus urticae) | percent effect (mortality or growth inhibition) at 200 ppm (Diabrotica balteata) | percent effect (mortality or growth inhibition) at 200 ppm (Euschistus heros) | percent effect (mortality or growth inhibition) at 200 ppm (Plutella xylostella)

Cc1cc(C2=NCC(c3cc(Cl)c(F)c(Cl)c3)(C(F)(F)F)C2)ccc1C(=O)N[C@H]1CON(S(=O)(=O)N(C)C)C1 (stereo partly drawn) [Compound A10, 4-[3-(3,5-dichloro-4-fluoro-phenyl)-3-(trifluoromethyl)-2,4-dihydropyrrol-5-yl]-N-[(4R)-2-(dimethylsulfamoyl)isoxazolidin-4-yl]-2-methyl-benzamide]
≥ 80%: percent control (mortality, anti-feedant effect or growth inhibition) at 200 ppm (Spodoptera littoralis) | mortality at 200 ppm (Thrips tabaci) | mortality at 200 ppm (Myzus persicae [1]) | mortality at 200 ppm (Tetranychus urticae) | percent effect (mortality or growth inhibition) at 200 ppm (Diabrotica balteata) | percent effect (mortality or growth inhibition) at 200 ppm (Euschistus heros) | percent effect (mortality or growth inhibition) at 200 ppm (Plutella xylostella)
